Results as given in ChEMBL document CHEMBL1201862, “PubChem BioAssay data set” (2004).
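The compound was tested at five concentrations on cells cultured in 96-well plates, with a 48-hour exposure period. GI50 = concentration required for 50% inhibition of growth.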 Calls of active or inactive are those of the source. Rule as the data show it: active = GI50 up to about 1.1 µM and inactive = higher.

Key:
Assay in all cases: NCI anticancer screen, dose series, 48 h
786-0 = tested on: 786-0
A498 = tested on: A498
DU-145 = tested on: DU-145
EKVX = tested on: EKVX
Hs-578T = tested on: Hs-578T
M14 = tested on: M14
MCF7 = tested on: MCF7
MDA-MB-435 = tested on: MDA-MB-435
NCI-H522 = tested on: NCI-H522
NCI/ADR-RES = tested on: NCI/ADR-RES
OVCAR-3 = tested on: OVCAR-3
OVCAR-4 = tested on: OVCAR-4
SF-295 = tested on: SF-295
SK-OV-3 = tested on: SK-OV-3
SN12C = tested on: SN12C
SR = tested on: SR
TK-10 = tested on: TK-10
U-251 = tested on: U-251
UACC-257 = tested on: UACC-257
SK-MEL-28 = tested on: SK-MEL-28

Row | SMILES | GI50 (786-0) | GI50 (A498) | GI50 (DU-145) | GI50 (EKVX) | GI50 (Hs-578T) | GI50 (M14) | GI50 (MCF7) | GI50 (MDA-MB-435) | GI50 (NCI-H522) | GI50 (NCI/ADR-RES) | GI50 (OVCAR-3) | GI50 (OVCAR-4) | GI50 (SF-295) | GI50 (SK-OV-3) | GI50 (SN12C) | GI50 (SR) | GI50 (TK-10) | GI50 (U-251) | GI50 (UACC-257) | GI50 (SK-MEL-28)
1 | Nc1ncc2c(n1)-c1ccccc1OC2NC1CC1 (configuration not stated) | > 100 µM (inactive) | > 100 µM (inactive) | > 100 µM (inactive) | 97.5 µM (inactive) | > 100 µM (inactive) | > 100 µM (inactive) | > 100 µM (inactive) | > 100 µM (inactive) | > 100 µM (inactive) | > 100 µM (inactive) | > 100 µM (inactive) | > 100 µM (inactive) | > 100 µM (inactive) | > 100 µM (inactive) | > 100 µM (inactive) | > 100 µM (inactive) | > 100 µM (inactive) | > 100 µM (inactive) | > 100 µM (inactive) | –
2 | C[C@]12CC/C(=N\O)C=C1CC[C@@H]1[C@@H]2CC[C@]2(C)C(=N/O)/C(=C/c3ccncc3)C[C@@H]12 | 24.7 µM (inactive) | – | 31.6 µM (inactive) | 25.7 µM (inactive) | 86.5 µM (inactive) | 13.5 µM (inactive) | 16.3 µM (inactive) | 21.8 µM (inactive) | 27.2 µM (inactive) | 21.2 µM (inactive) | 20 µM (inactive) | 31.9 µM (inactive) | 31.3 µM (inactive) | 51.5 µM (inactive) | 17.3 µM (inactive) | 12.7 µM (inactive) | 36.1 µM (inactive) | 29.2 µM (inactive) | 28.4 µM (inactive) | 39.8 µM (inactive)
3 | CC1=CCC[C@]2(C)C1=CC(=O)O[C@H]2c1ccoc1 | > 100 µM (inactive) | > 100 µM (inactive) | > 100 µM (inactive) | > 100 µM (inactive) | > 100 µM (inactive) | – | > 100 µM (inactive) | > 100 µM (inactive) | > 100 µM (inactive) | > 100 µM (inactive) | > 100 µM (inactive) | > 100 µM (inactive) | > 100 µM (inactive) | > 100 µM (inactive) | > 100 µM (inactive) | > 100 µM (inactive) | > 100 µM (inactive) | > 100 µM (inactive) | > 100 µM (inactive) | > 100 µM (inactive)
4 | COc1cc(S(=O)(=O)Nc2ccc(-c3csc(N4C(=O)C(C)SC4c4ccccc4O)n3)cc2)ccc1Cl (configuration not stated) | 35.1 µM (inactive) | > 100 µM (inactive) | 41.3 µM (inactive) | 28.8 µM (inactive) | 31.2 µM (inactive) | 40.2 µM (inactive) | 35.2 µM (inactive) | 37.8 µM (inactive) | 18.3 µM (inactive) | > 100 µM (inactive) | 69.5 µM (inactive) | – | 59.3 µM (inactive) | > 100 µM (inactive) | 40.9 µM (inactive) | 36.2 µM (inactive) | – | – | – | 16.1 µM (inactive)
5 | Nc1ccc2c(=O)cc(-c3ccc(Br)s3)[nH]c2n1 | 4.02 µM (inactive) | 3.21 µM (inactive) | 3.93 µM (inactive) | 7.59 µM (inactive) | 2.36 µM (inactive) | 3.12 µM (inactive) | 2.15 µM (inactive) | 0.32 µM (active) | 1.42 µM (inactive) | 2.6 µM (inactive) | 3.18 µM (inactive) | > 56.6 µM (inactive) | 2.83 µM (inactive) | 3.94 µM (inactive) | 6.55 µM (inactive) | 0.267 µM (active) | 11.7 µM (inactive) | 3.61 µM (inactive) | > 27.7 µM (inactive) | 3.08 µM (inactive)
6 | CC1=CC(=O)/C(=C/NC(=S)NCc2ccccc2)C(=O)O1 | > 100 µM (inactive) | 43.9 µM (inactive) | > 100 µM (inactive) | > 100 µM (inactive) | > 100 µM (inactive) | > 100 µM (inactive) | > 100 µM (inactive) | > 100 µM (inactive) | > 100 µM (inactive) | > 100 µM (inactive) | > 100 µM (inactive) | > 100 µM (inactive) | > 100 µM (inactive) | > 100 µM (inactive) | > 100 µM (inactive) | > 100 µM (inactive) | > 100 µM (inactive) | > 100 µM (inactive) | > 100 µM (inactive) | > 100 µM (inactive)
7 | C/C=C1\C[C@@H]2C(OC)Nc3cc(O)c(OC)cc3C(=O)N2C1 (some centres not stated) | – | 0.0273 µM (active) | < 0.01 µM (active) | < 0.0103 µM (active) | 0.0142 µM (active) | 0.00461 µM (active) | < 0.01 µM (active) | < 0.01 µM (active) | < 0.01 µM (active) | < 0.01 µM (active) | < 0.01 µM (active) | < 0.01 µM (active) | < 0.01 µM (active) | < 0.01 µM (active) | < 0.01 µM (active) | 0.000431 µM (active) | < 0.0171 µM (active) | < 0.01 µM (active) | < 0.01 µM (active) | < 0.0107 µM (active)
